Test results: US11596716B2, “Compounds and matrices for use in bone growth and repair” (Human BioMolecular Research Institute, priority 2013, dated 2023)
Where two headings read alike, the source gives them in different places.

What was measured:
[1] = tested on: C2C12 cells; experiment: Alkaline Phosphatase (ALP) functional activity assay in C2C12 cells; format: cell-based, Mouse; settings: normalized to DMSO treatment; for activation at 0.5 µM: Mus musculus, C2C12, 144 h
Description: Alkaline Phosphatase (ALP) Functional Activity Assay: C2C12 cells were plated into 12-well plates with 7,000 cells/well in 1 mL growth media. […] 1, 2, 3, or 4 in 0.1% DMSO was added (500 nM). Half the media was exchanged with fresh media containing compound every 48 hrs. After 6 days, media was removed, ALP Lysis Buffer (10 mM Tris-HCl pH 8.0, 1 mM MgCl2, and 1% Triton X100) added, and cell lysate obtained (10 min incubation at RT) by centrifugation (5 min at 3500× g at 4° C.). Para-nitrophenol phosphate (pNPP) (2 mg/mL) was incubated with 50 μl cell lysate (10 mins, 37° C.). After addition of […] 0.02 N NaOH, absorbance OD405 was measured. Protein concentration was determined by Bradford protein assay. Results of ALP activity were plotted as nM pNP hydrolyzed/mg total protein. After normalizing control samples (i.e., DMSO-treated samples) to one-fold, the fold-changes were plotted to indicate the relative ALP activity. […] This protocol was applied to hMSC and E15 cells as well.

[2] = tested on: hMSCs; experiment: qPCR of target gene mRNA expression in hMSCs; format: cell-based, human; settings: hMSCs, comparison with compound 3 and calcium phosphate ceramic
Description: qPCR detection of osteogenic markers: Cells were cultured with compound in the presence or absence of matrix as described above, but using 96-well plate format. Total RNA was extracted from cells (as above) using Trizol. cDNA was made using 750 ng of total RNA with Bio-Rad iscript kit and was diluted 20-fold before being used for qPCR. qPCR was conducted under the following conditions: 95° C., 2 min; 95° C., 10 s and 60° C., 45 s for 40 cycles; 60° C. for 71 cycles for melt curve. qPCR results were analyzed by the ΔΔCt method. 18s rRNA was used as an internal standard. This protocol was applied to hMSC and E15 cells.
Runx2 and BMP-2 are osteogenic markers; Axin2, Wnt3a, and Sox 9 are Wnt-inducible gene markers.
The assay for mRNA expression followed the same procedure with hMSCs as described for C2C12 cells (Example 7).

[3] = tested on: Wnt transcription; experiment: WNT transcriptional reporter assay (Super(8×)TOPflash luciferase, HEK293T cells); format: cell-based; settings: Wnt3A-expressing vector, 20 hrs, relative to cells treated with DMSO alone, read-out: Wnt transcription potency
Text: Commercially available Super(8×)TOPflash vector driven by a (7×) TCF-firefly luciferase response element was transiently transfected into HEK293T cells, together with a TK-driven Renilla luciferase plasmid as an internal control to normalize the luminescence signal and a Wnt3A-expressing vector as the source of pathway activation. HEK293T cells were transfected with plasmids in DMEM plus 10% fetal bovine serum (FBS) for 8 hr, replated to 96-well plates in DMEM plus 10% FBS followed by treatment with compounds (1.6 nM to 5 M) (DMSO final concentration is 0.5%) for 20 hrs. Firefly and Renilla luciferase activities were measured and normalized by the Renilla luciferase values.

[4] = compounds of Formula VI, absence of matrix
[5] = compounds of Formula VI, presence of calcium phosphate matrix
[6] = compounds of Formula II or IV, absence of matrix
[7] = compounds of Formula II or IV, presence of calcium phosphate matrix

Row | SMILES | activation at 0.5 µM [1, 4] [%] | activation at 0.5 µM [1, 5] [%] | activation at 0.5 µM [1, 6] [%] | activation at 0.5 µM [1, 7] [%] | further results
1 | COc1cc(C=CC(=O)C=C(O)C=Cc2ccc(O)c(OC)c2)ccc1O [Compound 38, 1,7-Bis(4-hydroxy-3-methoxyphenyl)-5-hydroxy-hepta-1,4,6-trien-3-one] | 5 to 50 | > 100 | – | – | robust mRNA up-regulation of VDR or ALP [2]: not observed
2 | COc1ccc(F)cc1C=CC(O)=C1CCCC(=Cc2cc(F)ccc2OC)C1=O [Compound 56, 2-(5-Fluoro-2-methoxybenzylidene)-6-(3-(5-fluoro-2-methoxyphenyl)-1-hydroxyallylidene) cyclohexanone] | < 5 | > 100 | – | – | –
3 | COc1cc(O)ccc1C=CC(=O)C=C(O)C=Cc1ccc(O)cc1OC [Compound 49, 5-Hydroxy-1,7-bis-(4-hydroxy-2-methoxyphenyl)-hepta-1,4,6-trien-3-one] | 50 to 100 | < 5 | – | – | –
4 | CC(=O)N1c2ccc(C)cc2[C@@H](Nc2ccc(C)cc2)C[C@@H]1C (relative stereo) [Compound 13, trans-1-acetyl-2,6-dimethyl-N-(p-methylphenyl)-1,2,3,4-tetrahydroquinolin-4-amine] | – | – | > 100 | < 5 | –
5 | CC(=O)N1c2ccc(C)cc2[C@@H](N(C(C)=O)c2ccc(C)cc2)C[C@@H]1C (relative stereo) [Compound 27, trans-1-acetyl-2,6-dimethyl-N-(p-methylphenyl)-N-acetyl-1,2,3,4-tetrahydroquinolin-4-amine] | – | – | 5 to 50 | 5 to 50 | –
6 | O=C(C=C(O)CCc1ccc(O)cc1)CCc1ccc(O)cc1 [Compound 63, 5-Hydroxy-1,7-bis(4-hydroxyphenyl)hept-4-en-3-one] | 5 to 50 | 50 to 100 | – | – | –
7 | Cc1ccc(N(C(=O)c2ccccc2)[C@H]2C[C@H](C)N(C(=O)c3ccccc3)c3ccc(C)cc32)cc1 (relative stereo) [Compound 28, trans-1-benzoyl-2,6-dimethyl-N-(p-methylphenyl)-N-benzoyl-1,2,3,4-tetrahydroquinolin-4-amine] | – | – | < 5 | < 5 | –
8 | C[C@H]1C[C@@H](Nc2ccccc2)c2ccccc2N1 (relative stereo) [Compound 7, cis-2-methyl-N-phenyl-1,2,3,4-tetrahydroquinolin-4-amine] | – | – | 5 to 50 | 5 to 50 | –
9 | Cc1nc2c(-c3ccccc3)cnn2c(N2CCN(C)CC2)c1C [Compound 31, 3-phenyl-5,6-dimethyl-7-(N-methyl-N-piperazinyl)-pyrazolo[1,5-a]pyrimidine] | – | – | – | – | EC50 [3]: 15 to 40 nM; ALP activity −matrix [1, 6]: + (5-50%); ALP activity +matrix [1, 7]: + (5-50%)
10 | COc1ccc(N[C@@H]2C[C@H](C)Nc3ccc(OC)cc32)cc1 (relative stereo) [Compound 11, cis-2-methyl-6-methoxy-N-(p-methoxyphenyl)-1,2,3,4-tetrahydroquinolin-4-amine] | – | – | < 5 | 50 to 100 | –
11 | COc1ccc(C(=O)N2c3ccc(F)cc3[C@@H](N(C(=O)c3ccc(OC)cc3)c3ccc(F)cc3)C[C@@H]2C)cc1 (relative stereo) [Compound 30, trans-1-(p-methoxybenzoyl)-2-methyl-6-fluoro-N-(p-fluorophenyl)-N-(p-methoxybenzoyl)-1,2,3,4-tetrahydroquinolin-4-amine] | – | – | < 5 | 5 to 50 | –
12 | COc1ccc(C(=O)N2c3ccc(F)cc3[C@H](Nc3ccc(F)cc3)C[C@@H]2C)cc1 (relative stereo) [Compound 25, cis-1-(p-methoxybenzoyl)-2-methyl-6-fluoro-N-(p-fluorophenyl)-1,2,3,4-tetrahydroquinolin-4-amine] | – | – | 5 to 50 | 5 to 50 | –
13 | Cc1nc2c(-c3ccccc3)cnn2c(NCCC(C)C)c1C [Compound 32, 3-phenyl-5,6-dimethyl-7-[N-(3-methylbutyl)amino]-pyrazolo[1,5-a]pyrimidine] | – | – | < 5 | < 5 | EC50 ([3]; Homo sapiens, HEK-293T): > 40 nM
